Data taken from patent publication EP3666770A1, “NOVEL HETEROCYCLIC COMPOUNDS AS CDK8/19 INHIBITORS” (Joint Stock Company "Biocad", priority 2017, dated 2019).
Where “and” joins values, the source holds several entries; their conditions need not be identical. Identical values can stand only once. Like-named read-outs stand apart in the source and are kept apart here.

What was measured:
[1] = Enzyme stability in human liver microsomes; type: in vitro ADME; conditions: pH 7.4; 0,5 mg/mL pooled human liver microsomes; 10 µM compound; 37°C; pH=7,4
In short: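 Pooled human liver microsomes (0,5 mg/mL) incubated at 37 °C with 10 µM compound, 2 mM β-NAD and 4 mM MgCl2 in 0,1 M sodium phosphate, pH 7,4. Samples quenched with acetonitrile and analysed by HPLC. Elimination rate constant taken from the slope of log peak area versus time, giving t1/2 and CLint.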

MV4-11 = assay: Cell-based antiproliferative test (AlamarBlue), MV4-11; conditions: Homo sapiens, MV4-11, 120 h, 120 h incubation; average values of several tests; read-out: MV-4-11 IC50, mkM
[2] = Chemical stability in human blood plasma; type: in vitro ADME; conditions: pooled human blood plasma; 10 µM; 4 hours at 37°C; substance amount in % after thermostatting
In short: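 Pooled plasma from ten healthy human donors; compound diluted from 10 mM DMSO stock to 10 µm final and incubated 4 h at 37°C. After acetonitrile protein precipitation, HPLC peak areas before and after incubation were compared; value is % compound remaining.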

KG-1 = assay: Cell-based antiproliferative test (AlamarBlue), KG-1; conditions: Homo sapiens, KG-1; 120 h incubation; average values of several tests; read-out: KG-1 IC50, mkM
Method: (§1) Antiproliferative activity of CDK8 inhibitors according to the present invention was measured in a cell-based test on continuous cell cultures MV4-11 (biphenotypic myelomonocytic leukemia, ATCC® CRL-9591™), KG-1 (acute myeloid leukemia, ATCC® CCL-246™), HL-60 (acute promyelocytic leukemia, ATCC® CCL-240™) using a vital stain AlamarBlue (ThermoFisher, #DAL1100). The cells were grown in RPMI-1640 (PanEco, #C330p) medium with addition of 10% FBS (Gibco, #16140-071); washed and resuspended in culture medium with 10% FBS (Gibco, #16140-071) in 96-well culture plates (Corning, #3599) with ≈ 10 ×10^3 cells in […] of medium per well. The compounds in question were dissolved in DMSO and diluted with a medium with 10% FBS (Gibco, #16140-071) to a final concentration ranging form 0 to 100 µM. […] of diluted compounds were then added to each well (final DMSO concentration was less than 1%) and incubated under 5% CO2 atmosphere at 37°C for 120 h. After incubating, 15 µL of AlamarBlue (ThermoFisher, #DAL1100) reagent was added per well, contents of plates were mixed in an orbital shaker (Biosan, Latvia) and further incubated for 3-5 h at 37°C under 5% CO2 atmosphere. Number of living cells was estimated using a microplate spectrophotometer (Tecan Infinite M200Pro, Switzerland) measuring fluorescent signal at the excitation wavelength (λEx) of 540 nm and emission wavelength (λEm) of 590 nm.
(§2) IC50 was calculated using Magellan 7.2 software (Tecan, Switzerland) approximating experimental points by four-parameter logistic model with the optimization by Levenberg-Marquardt (table 7, table 7).

HL-60 = assay: Cell-based antiproliferative test (AlamarBlue), HL-60; conditions: 120 h incubation, average values of several tests, read-out: HL-60 IC50, mkM
Method: as §1, §2

[3] = General cytotoxicity test on HepG2 cells; type: cell-based; conditions: human, 72 h incubation, 200 to 0.78 µM, average values of several tests, read-out: Hep-G2 CC50, mkM
Method: Cell viability was assessed using the above method. Table 6. […] The results are presented as average values of activity obtained in several tests.

[4] = Permeability through Caco-2 cell monolayer; type: in vitro ADME; conditions: human, Caco-2; for Papp A→B at 2 h, 10 µM: A->B transfer, pH 6.5 -> pH 7.4, 2 hours at 37 °C; for efflux ratio at 2 h, 10 µM: efflux = Papp B-A / Papp A-B
Method: Estimation of permeability through Caco-2 cell monolayer enables assessment of the ability of the substances to penetrate through biological membranes by means of both active and passive transport.
Intestinal epithelial cells Caco-2 were grown on filter inserts (pore size 0.4 µm, BD Falcon with High Density) for 21 days; monolayer integrity was then checked using Lucifer Yellow (Sigma-Aldrich, USA) according to the standard protocol. In A->B transfer ("intestinal lumen" - "blood stream" transfer), solutions of the test substances in buffer, pH 6.5 (HBSS, 10 mM HEPES, 15 mM glucose) at a concentration of 10 µM were added to the upper chamber; whereas the lower chamber was filled with buffer, pH 7.4 (HBSS, 10 mM HEPES, 15 mM Glucose, 1% BSA). In B->A transfer ("blood stream" - "intestinal lumen" transfer), the upper chamber was filled with buffer, pH 6.5, whereas the solutions of the test substances in buffer, pH 7.4, at a concentration of 10 µM were added to the lower chamber. A highly permeable substance propranolol was used as a control.
After 2 hours incubation at 37 ° C under an atmosphere containing 5% CO2, the amounts of the test substances in the upper and lower chambers were measured by HPLC using an Agilent1200 HPLC system (Agilent, USA), proteins were preliminarily precipitated with acetonitrile. Chromatographic analysis was performed in a gradient elution regime with a flow rate of 1 mL/min. The peak areas corresponding to the compounds were detected on chromatograms.
The value was calculated using the formula: efflux = Papp B−A /Papp A−B , [formula] where • Papp A-E - the value of permeability direct analysis A→ B; • Papp B-A - the value of the permeability of the reverse analysis B→ A.

[5] = Chemical stability in simulated gastric fluid (SGF); type: physicochemical; conditions: SGF without enzymes, pH=1,4; 10 µm; 2 hours at 37°C; substance amount in % after thermostatting
In short: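 Compounds at […] (diluted from DMSO stock) were incubated for 2 h at 37 °C in enzyme-free simulated gastric fluid, pH=1,4. HPLC peak areas before and after incubation gave the % of compound remaining.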

Compound | microsomal CLint at 10 µM [1] [µL/min/mg] | IC50 (MV4-11) [µM] | Stability in blood plasma, % [2] [%] | IC50 (KG-1) [µM] | IC50 (HL-60; Homo sapiens, HL-60, 120 h) [µM] | CC50 at 72 h ([3]; HepG2 cells) [µM] | Papp A→B at 2 h, 10 µM [4] [nm/s] | efflux ratio at 2 h, 10 µM [4] | Stability in SGF, % [5] | IC50 (HL-60) [µM] | CC50 at 72 h [3] [µM]
O=C(c1ccc2ncn(-c3ccc(-c4cn[nH]c4)cc3)c2c1)N1CCCCC1 [CDK8-1-3, (1-(4-(1H-Pyrazol-4-yl)phenyl)-1H-benzo[d]imidazol-6-yl)(piperidin-1-yl) methanone] | 24.8 | 2.08 | 97.7 | 27.6 | 81.4 | 59.1 | 641 | 0.44 | 100% |  | 
O=C(C1CN(c2ccc3ncn(-c4ccc(-c5cn[nH]c5)cc4)c3c2F)C1)N1CCOCC1 [CDK8-1-14, (1-(1-(4-(1H-Pyrazol-4-yl)phenyl)-7-fluoro-1H-benzo[d]imidazol-6-yl)azetidin-3-yl)(morpholino)methanone] | 12.4 |  | 100 | 23.2 | 33.9 | > 100 | 399 | 0.79 | 92.5% and 100% | 60.7 | > 50
Cn1cc(-c2ccc(-c3cncc4ncc(C(=O)N5CCC5)cc34)cc2)cn1 [CDK8-3-14, Azetidin-1-yl-(5-(4-(1-methyl-1H-pyrazol-4-yl)phenyl)-1,7-naphthyridin-3-yl) methanone] | 13.6 | 0.2 | 100 | 0.05 | 69.8 | > 100 | 398 | 1.35 | 100% |  | 
COC1CN(C(=O)c2cnc3cncc(-c4ccc(-c5cnn(C)c5)cc4)c3c2)C1 [CDK8-3-15, (3-Methoxyazetidin-1-yl)(5-(4-(1-methyl-1H-pyrazol-4-yl)phenyl)-1,7-naphthyridin-3-yl) methanone] | 15.2 | 2.45 | 75.1 | 1.13 | > 60 | > 100 |  |  | 99.3% |  | 
Cn1cc(-c2ccc(-c3cncc4ncc(C(=O)N5CCCC5)cc34)cc2)cn1 [CDK8-3-16, (5-(4-(1-Methyl-1H-pyrazol-4-yl)phenyl)-1,7-naphthyridin-3 - yl)(pyrrolidin-1-yl) methanone] | 27.8 | 2.87 | 100 | 0.94 | > 60 | > 100 |  |  | 100% |  | 
Cn1cc(-c2ccc(-c3cncc4ncc(N5CCCC5=O)cc34)cc2)cn1 [CDK8-3-17, 1-(5-(4-(1-Methyl-1H-pyrazol-4-yl)phenyl)-1,7-naphthyridin-3-yl)pyrrolidin-2-one] | 10.7 | 8.85 | 100 | 3.93 | 46.5 | > 20 |  |  | 100% |  | 
COCCNC(=O)c1cnc2cncc(-c3ccc(-c4cnn(C)c4)cc3)c2c1 [CDK8-3-18, N-(2-Methoxyethyl)-5-(4-(1-methyl-1H-pyrazol-4-yl)phenyl)-1,7-naphthyridine-3-carboxamide] | 10.4 | 0.19 | 100 | 0.08 | 35 | > 200 | 469 | 0.9 | 100% |  | 
COc1cc(-c2cnc3[nH]cc(C(=O)c4cccnc4)c3c2)ccc1N1CCOCC1 [CDK8-4-27, (5-(3-Methoxy-4-morpholinophenyl)-1H-pyrrolo[2,3-b]pyridin-3-yl) (pyridin-3-yl) methanone] | 7.2 | 0.05 | 100 | 5.21 | > 100 | > 100 | 846 | 0.25 | 100% |  | 
COc1cccc(C(=O)c2c[nH]c3ncc(-c4ccc(N(C)C)cc4)cc23)c1 [CDK8-4-34, (5-(4-(Dimethylamino)phenyl)-1H-pyrrolo[2,3-b]pyridin-3-yl) (3-methoxyphenyl) methanone] | 24.2 | 0.14 | 100 | 0.2 | 0.081 | 2.6 |  |  | 99.5% |  | 
Cn1cc(-c2ccc(-c3ccnc4ccc(N5CCCC5=O)cc34)cc2)cn1 [CDK8-6-13, 1-(4-(4-(1-Methyl-1H-pyrazol-4-yl)phenyl)quinolin-6-yl) pyrrolidin-2-one] | 22.6 | 19.7 | 98.9 | 12.3 | > 60 | > 200 |  |  | 99.7% |  | 
COCCNC(=O)c1ccc2nccc(-c3ccc(-c4cnn(C)c4)cc3)c2c1 [CDK8-6-14, N-(2-Methoxyethyl)-4-(4-(1-methyl-1H-pyrazol-4-yl)phenyl)quinoline-6-carboxamide] | 11.8 | 11.7 | 100 | 9.6 | 66.5 | > 50 | 641 | 0.44 | 100% |  | 
